Values joined by “and” are separate entries in the source; they are usually repeats but may differ in a detail not shown here. Equal entries are not always repeated.
Tests used:
[1] = Plasma pharmacokinetics after oral SNX-5422; format: in vivo, human
[2] = system: head and neck squamous cancer cell lines; settings: cited from earlier work
[3] = system: patients with advanced lung cancers; experiment: Dose determination; format: in vivo, human; settings: for Dose-limiting toxicities (DLTs): cycle 1, with carboplatin-paclitaxel
[4] = system: patients with advanced lung cancers; settings: human, in vivo
[5] = system: patients with NSCLC; experiment: Anti-tumor activity; format: in vivo, human
[6] = system: patients with solid tumors; settings: SNX-5422 alone; cited from earlier work
[7] = SNX-5422 doses of 50, 75, and 100 mg/m^2

CC1(C)CC(=O)c2c(C(F)(F)F)nn(-c3ccc(C(N)=O)c(N[C@H]4CC[C@H](O)CC4)c3)c2C1 [SNX-2112]
AUC0–24 of SNX-2112, dose proportionality [1, 7]: increased in a slightly greater than proportional manner | Maximum plasma concentration of SNX-2112, dose proportionality [1, 7]: increased in approximate proportion to dose | half-life ([1]; human, plasma, po): ~480 min | Activity with carboplatin and paclitaxel [2]: combinatorial activity

CC1(C)CC(=O)c2c(C(F)(F)F)nn(-c3ccc(C(N)=O)c(N[C@H]4CC[C@H](OC(=O)CN)CC4)c3)c2C1 [SNX-5422]
Dose-limiting toxicities (DLTs) ([3]; 50 mg/m^2 cohort (n=3)): no DLTs | Dose-limiting toxicities (DLTs) ([3]; 75 mg/m^2 cohort (n=4)): no DLTs | Maximum tolerated dose (MTD) of SNX-5422 ([3]; qod, in combination with carboplatin (AUC 5) and paclitaxel (175 mg/m^2)): 100 mg/m^2 | Any treatment-related AE, All Grade [4]: 7 (54) n (%) | Any treatment-related AE, Grade 1 [4]: 1 (8) n (%) | Any treatment-related AE, Grade 2 [4]: 4 (31) n (%) | Any treatment-related AE, Grade 3 [4]: 2 (15) n (%) | Any treatment-related AE, Grade 4 [4]: 0 n (%) | Decreased appetite, All Grade [4]: 2 (15) n (%) | Decreased appetite, Grade 1 [4]: 1 (8) n (%) | Decreased appetite, Grade 2 [4]: 1 (8) n (%) | Decreased appetite, Grade 3 [4]: 0 n (%) | Decreased appetite, Grade 4 [4]: 0 n (%) | Diarrhea, All Grade [4]: 3 (23) n (%) | Diarrhea, Grade 1 [4]: 0 n (%) | Diarrhea, Grade 2 [4]: 1 (8) n (%) | Diarrhea, Grade 3 [4]: 2 (15) n (%) | Diarrhea, Grade 4 [4]: 0 n (%) | Fatigue, All Grade [4]: 2 (15) n (%) | Fatigue, Grade 1 [4]: 1 (8) n (%) | Fatigue, Grade 2 [4]: 1 (8) n (%) | Fatigue, Grade 3 [4]: 0 n (%) | Fatigue, Grade 4 [4]: 0 n (%) | Nausea, All Grade [4]: 2 (15) n (%) | Nausea, Grade 1 [4]: 2 (15) n (%) | Nausea, Grade 2 [4]: 0 n (%) | Nausea, Grade 3 [4]: 0 n (%) | Nausea, Grade 4 [4]: 0 n (%) | Treatment-related decreased appetite [4]: 15% | Treatment-related diarrhea [4]: 23% | Treatment-related fatigue [4]: 15% | Treatment-related grade 3/4 diarrhea [4]: 15% | Treatment-related grade 3/4 nausea [4]: 0% | Treatment-related nausea [4]: 15% | Concentrations of SNX-5422 in samples collected after dosing ([1]; oral SNX-5422): no measurable concentrations | Duration of disease control on single-agent maintenance ([5]; HER2, RET, KRAS, and EGFR-mutations): 4–12 months | Time on SNX-5422 maintenance ([5]; another patient with KRAS-mutant NSCLC, unconfirmed response): ~ 5 months | Time on SNX-5422 maintenance ([5]; one patient with HER2-mutant NSCLC, partial response): 12 months and ~ 12 months | Time on SNX-5422 maintenance prior to progression ([5]; one patient with KRAS-mutant NSCLC, partial response): ~ 7 months | Single-agent maximum tolerated dose (MTD) [6]: 100 mg/m^2

Reference: paper PMC8642306 (Lung cancer (Amsterdam, Netherlands), 2021)
